# Literature values, collected in patent US7148350B2, “Compounds in the form of homodimeric or heterodimeric pro-drugs; process for obtaining these pro-drugs and their acceptable pharmaceutical salts and use of compounds in the treatment of phosphodiesterases-mediated diseases or dysfunction” (Cristalia Prod.Qui.Farm. LTDA, priority 2000, dated 2006).
# Key:
# [1] = dimer versus isolated monomers
# [2] = tested on: granulocyte progenitor cells and macrophages; conditions: dimer versus monomers
# [3] = tested on: erectile dysfunction; conditions: oral administration; patients with organic erectile dysfunction
# [4] = after administration; limited by pre-systemic metabolism
compound,measurement,setting,value
"Cc1cn([C@H]2C[C@H](N=[N+]=[N-])[C@@H](CO)O2)c(=O)[nH]c1=O [AZT, zidovudine]",EC50,[1],3.9 nM
same,oral bioavailability,after oral administration of AZT-P-DDI,64.7–67.3%
Cc1cn([C@H]2C[C@H](N=[N+]=[N-])[C@@H](COP(=O)(O)OC[C@@H]3CC[C@H](n4cnc5c(=O)[nH]cnc54)O3)O2)c(=O)[nH]c1=O [AZT-P-DDI],EC50,[1],0.14 nM
same,less toxicity (fold),[2],10 times
same,time after which plasmatic concentration is no longer detected,"intravenous administration, 50 or 100 mg",30 min
same,detection of the dimer after oral administration,oral administration,not detected
"O=c1[nH]cnc2c1ncn2[C@H]1CC[C@@H](CO)O1 [DDI, didanosine]",EC50,[1],460 nM
COC(=O)[C@@H]1[C@H]2C[C@H]3c4[nH]c5ccccc5c4CCN3C[C@@H]2CC[C@@H]1O [Yohimbine],effectiveness,[3],low
CCCc1nn(C)c2c(=O)[nH]c(-c3cc(S(=O)(=O)N4CCN(C)CC4)ccc3OCC)nc12 [sildenafil],absolute bioavailability,[4],40%
